Key:
[1] = system: MCF-10A non-tumorigenic human mammary epithelial cells; assay: toxicity evaluation, alamarBlue assay; type: cell-based; settings: 10 μM, 24 h
MCF-7 cells = assay: cell cycle analysis, PI staining, flow cytometry; type: cell-based, human; settings: 1 μM
Protocol: The cells were collected by trypsinisation and centrifuged at 800× g for 15 min. Cells were washed twice with ice-cold phosphate-buffered saline (PBS) and fixed in ice-cold 70% ethanol overnight at −20 °C.

PARP = assay: Western blot in MCF-7 cells; type: cell-based, human; settings: MCF-7, 1 μM, vs vehicle
Protocol: (§1) MCF-7 cells were seeded at a density of 1 × 10^5 cells/flask (10 mL) in T25 flasks. After 48 h, whole cell lysates were prepared from untreated cells or cells treated with vehicle control (EtOH, 0.1% v/v) or selected compound 21l or 24 (1 μM). MCF-7 cells were harvested in Radioimmunoprecipitation assay buffer (RIPA) buffer supplemented with protease inhibitors (Roche Diagnostics), phosphatase inhibitor cocktail 2 (Sigma-Aldrich), and phosphatase inhibitor cocktail 3 (Sigma-Aldrich). Equal quantities of protein (as determined by a bicinchoninic acid assay (BCA assay) were resolved by SDS-PAGE (12%) followed by transfer to polyvinylidene fluoride PVDF membranes. Membranes were blocked in 5% bovine serum albumin/Tris-buffered saline with 0.1% Tween®20 Detergent (TBST) for 1 h. Membranes were incubated in the relevant primary antibodies at 4 °C overnight, washed with TBST, and incubated in horseradish peroxidase-conjugated secondary antibody for 1 h at rt and washed again. Western blot analysis was performed as described above using antibodies directed against Mcl-1 (1:1000) (Millipore), Bcl-2 [1:500] (Millipore), and PARP followed by incubation with a horseradish peroxidase-conjugated anti-mouse antibody (1:2000) (Promega, Madison, WI, USA). All blots were probed with anti-glyceraldehyde 3-phosphate dehydrogenase (GAPDH) antibody (1:5000) (Millipore) to confirm equal loading. Proteins were detected using enhanced chemiluminescent Western blot detection (Clarity Western ECL substrate) (Bio Rad) on the ChemiDoc MP System (Bio Rad). Experiments were performed on three independent occasions.

Bcl-2 = assay: Western blot in MCF-7 cells; type: cell-based, human; settings: MCF-7, 1 μM
Protocol: as §1

Mcl-1 = assay: Western blot in MCF-7 cells; type: cell-based, human; settings: MCF-7, 1 μM
Protocol: as §1

MDA-MB-231 cells = assay: Annexin V/PI apoptotic assay; type: cell-based, human; settings: 48 h
Protocol: Apoptotic cell death was detected by flow cytometry using Annexin V and propidium iodide (PI). MCF-7 and MDA-MB-231 cells were seeded in 6-well plates at a density of 1 × 10^5 cells/mL (3 mL) and treated with either vehicle (0.1% (v/v) EtOH), Phenstatin (7a), or 21l at different concentrations for the selected time. Then, cells were harvested and prepared for flow cytometric analysis. […] Then, cells were washed once in binding buffer and then re-suspended in PI-containing binding buffer (1:1000). […] Four populations are produced during the assay: Annexin V and PI negative (Q4, healthy cells), Annexin V positive and PI negative (Q3, early apoptosis), Annexin V and PI positive (Q2, late apoptosis), and Annexin V negative and PI positive (Q1, necrosis).

HL-60 leukaemia cells = assay: cell viability assay; type: cell-based; settings: Homo sapiens, read-out: Antiproliferative Activity HL-60 Cells IC50
Protocol: The human breast carcinoma cell line MCF-7 was purchased from the European Collection of Animal Cell Cultures (ECACC) and cultured in Eagles minimum essential medium with 10% foetal bovine serum, 2 mM L-glutamine, and 100 μg/mL penicillin/streptomycin. The medium was supplemented with 1% non-essential amino acids. The human breast carcinoma cell line MDA-MB-231 was purchased from the ECACC. MDA-MB-231 cells were maintained in Dulbecco’s modified Eagle’s medium (DMEM) supplemented with 10% (v/v) foetal bovine serum, 2 mM L-glutamine, and 100 μg/mL penicillin/streptomycin (complete medium). HL-60 cells were derived from a patient with acute myeloid leukaemia and were obtained from the ECACC (Salisbury, UK). Cells were cultured in RPMI-1640 Glutamax medium supplemented with 10% FCS media and 100 μg/mL penicillin/streptomycin. MCF-10A cells were obtained as a kind gift from Dr Susan McDonnell, School of Chemical and Bioprocess Engineering, University College Dublin and were cultured in Dulbecco’s Modified Eagle Medium: Nutrient Mixture F-12 (DMEM/F12; Gibco) supplemented with 5% horse serum (Invitrogen), 20 ng mL^−1 epidermal growth factor (Merck Millipore), 0.5 μg mL^−1 hydrocortisone (Sigma,-Aldrich, Arklow, Co. Wicklow, Ireland), 100 ng mL^−1 cholera toxin (Sigma, Aldrich, Arklow, Co. Wicklow, Ireland), 10 μg mL^−1 insulin (Sigma, Aldrich, Arklow, Co. Wicklow, Ireland), and penicillin/streptomycin 5000 U mL^−1 (1%)(Gibco, Biosciences, 3 Charlemont Terrace, Crofton Road, Dun Laoghaire, Co Dublin, A96 K7H7, Ireland). […]
Cells were seeded at a density of 2.5 × 10^4 cells/well (MCF-7, MDA-MB-231, MCF-10A cells) and 1 × 10^4 cells/well (HL-60) in 96-well plates (200 μL per well). […] Cell proliferation for MCF-7, MDA-MB-231, and MCF-10A cells was analysed using the alamarBlue assay (Invitrogen Corp.) according to the manufacturer’s instructions. […] Fluorescence was read using a 96-well fluorimeter with excitation at 530 nm and emission at 590 nm. Results were expressed as percentage viability relative to vehicle control (100%).

[2] = system: purified bovine brain tubulin; assay: tubulin polymerisation assay; type: biochemical; settings: 10 μM
Protocol: The assembly of purified bovine tubulin was monitored using a kit, BK006, purchased from Cytoskeleton Inc. (Denver, CO, USA). […] Light is scattered proportionally to the concentration of polymerised microtubules in the assay. Therefore, tubulin assembly was monitored turbidimetrically at 340 nm in a Spectramax 340 PC spectrophotometer (Molecular Devices, Sunnyvale, CA, USA). The absorbance was measured at 30 s intervals for 60 min.

Row | SMILES | cell death [1] | cells in the G2/M phase (MCF-7 cells; 24 h) [%] | cells undergoing apoptosis (sub-G1) (MCF-7 cells; 24 h) [%] | cells in the G2/M phase (MCF-7 cells; 48 h) [%] | cells undergoing apoptosis (sub-G1) (MCF-7 cells; 48 h) [%] | cells in the G2/M phase (MCF-7 cells; 72 h) [%] | cells undergoing apoptosis (sub-G1) (MCF-7 cells; 72 h) [%] | expression of full-length PARP (116 kDa) (PARP) | expression level of Bcl-2 (Bcl-2) | expression level of Mcl-1 (Mcl-1) | viability at 0.1 µM (MDA-MB-231 cells; Homo sapiens, MDA-MB-231, 0.1 μM, Figure 9B, read-out: Viable) [%] | viability at 0.5 µM (MDA-MB-231 cells; Homo sapiens, MDA-MB-231, 0.5 μM, Figure 9B, read-out: Viable) [%] | viability at 1 µM (MDA-MB-231 cells; Homo sapiens, MDA-MB-231, 1 μM, Figure 9B) [%] | total apoptotic cells (MDA-MB-231 cells; MDA-MB-231, 0.1 μM) [%] | total apoptotic cells (MDA-MB-231 cells; MDA-MB-231, 0.5 μM) [%] | total apoptotic cells (MDA-MB-231 cells; MDA-MB-231, 1.0 μM) [%] | IC50 (HL-60 leukaemia cells) [nM] | effect on tubulin polymerisation and assembly [2] | fold reduction of the polymer mass compared to the vehicle [2] [fold] | Vmax value of tubulin polymerisation ([2]; 60 min) [mOD/min]
1 | COc1ccc(C(c2cc(OC)c(OC)c(OC)c2)n2cncn2)cc1O (stereo not shown) [19e, 5-((1H-1,2,4-Triazol-1-yl)(3,4,5-Trimethoxyphenyl)methyl)-2-Methoxyphenol] | approximately 50% | – | – | – | – | – | – | – | – | – | – | – | – | – | – | – | – | – | – | –
2 | COc1ccc(C(c2cc(OC)c(OC)c(OC)c2)n2ccnc2)cc1O (stereo not shown) [21l, 5-((1H-Imidazol-1-yl)(3,4,5-Trimethoxyphenyl)Methyl)-2-Methoxyphenol] | approximately 50% | 47 | 15 | 43 | 31 | 40 | 37 | significant reduction | no change | no change | 95.3 | 93.1 | 91.5 | 3.6 | 5.9 | 6.9 | 156 ± 52 | significant inhibition of tubulin polymerisation | 1.34 | 2.84 ± 0.10
3 | COc1ccc(C(c2cc(OC)c(OC)c(OC)c2)n2nccn2)cc1O (stereo not shown) [compound 24] | – | 52 | – | 56 | – | 59 | – | significant reduction | no change | no change | – | – | – | – | – | – | 173 ± 55 | – | – | –

Reference: publication PMC7926793, “Synthesis and Biological Evaluation of 1-(Diarylmethyl)-1H-1,2,4-triazoles and 1-(Diarylmethyl)-1H-imidazoles as a Novel Class of Anti-Mitotic Agent for Activity in Breast Cancer” (Pharmaceuticals, 2021)
